Read-outs that look alike come from different tables or passages of the source.
Key:
[1] = tested on: Leishmania donovani (MHOM/ET/67/L82) axenic amastigotes; assay: Leishmanicidal activity, axenic amastigotes, Alamar Blue; type: cell-based; conditions: for SI (Selectivity Index for leishmanicidal activity): L-6 cells versus L. donovani; for IC50: Leishmania donovani, axenic amastigotes, strain MHOM/ET/67/L82, 72 h, means of two determinations, read-out: L. donovani IC50
Protocol: Amastigotes of Leishmania donovani strain MHOM/ET/67/L82 were grown in axenic culture at 37 °C in SM medium at pH 5.4 supplemented with 10% heat-inactivated fetal bovine serum under an atmosphere of 5% CO2 in air. One hundred microliters of culture medium with 10^5 amastigotes from axenic culture with or without the compound to test were seeded in 96-well microtiter plates. […] Each drug was tested in duplicate and each assay was repeated at least once. After 72 h of incubation the plates were inspected under an inverted microscope to assure growth of the controls and sterile conditions. Ten microliters of Alamar Blue (12.5 mg resazurin dissolved in 100 mL phosphate buffered saline) were then added to each well and the plates incubated for another 2 h. Then the plates were read in a Spectramax Gemini XS microplate fluorometer (Molecular Devices Cooperation, Sunnyvale, CA, USA) using an excitation wave length of 536 nm and an emission wave length of 588 nm. Data were analyzed using the software Softmax Pro (Molecular Devices Cooperation, Sunnyvale, CA, USA). Decrease of fluorescence (=inhibition) was expressed as percentage of the fluorescence of control cultures. For the serial drug dilution assay inhibition values were plotted against the drug concentrations and IC50 values were calculated from the sigmoidal inhibition curves.

L-6 rat myoblast cells = assay: Cytotoxicity to L-6 cells, Alamar Blue; type: cell-based; conditions: for IC50: read-out: Cytot. L-6 Cells IC50
Protocol: Exactly 100 μL RPMI 1640 medium supplemented with 1% L-glutamine (200 mM) and 10% fetal bovine serum containing 4 × 10^4 L-6 cells (rat skeletal myoblasts) were added to each well of a 96-well microtiter plate. After 24 h, the medium was removed from all wells and replaced by 100 μL of fresh medium containing a 3-fold serial drug dilution covering a range from 200 μg/mL to 0.274 μg/mL, except for the control wells. After 72 h of incubation 10 μL of Alamar Blue (12.5 mg resazurin dissolved in 100 mL phosphate buffered saline) were added to each well and the plates were incubated for another 2 h. Then the plates were read with a Spectramax Gemini XS microplate fluorometer as described for the leishmanicidal assay. Podophyllotoxin was used as standard drug.

[2] = tested on: Trypanosoma brucei rhodesiense (STIB900); assay: Trypanocidal activity, bloodstream forms, Alamar Blue; type: cell-based; conditions: read-out: T.b. rhod. IC50
Protocol: Minimum essential medium (50 μL) supplemented according to a known procedure with 2-mercaptoethanol and 15% heat-inactivated horse serum was added to each well of a 96-well microtiter plate. Serial drug dilutions were prepared covering a range from 90 to 0.123 μg/mL. Then 10^4 bloodstream forms of T. b. rhodesiense STIB 900 in 50 μL were added to each well and the plate incubated at 37 °C under a 5% CO2 atmosphere for 72 h. Ten microliters of Alamar Blue (containing 12.5 mg resazurin dissolved in […] distilled water) were then added to each well and incubation continued for a further 2–4 h. The Alamar Blue dye is an indicator of cellular growth and/or viability. The blue, non-fluorescent, oxidized form becomes pink and fluorescent upon reduction by living cells. The plate was then read in a Spectramax Gemini XS microplate fluorometer (Molecular Devices Cooperation, Sunnyvale, CA, USA) using an excitation wavelength of 536 nm and emission wavelength of 588 nm. Fluorescence development was measured and expressed as percentage of the control. Data were transferred into the graphic programme Softmax Pro (Molecular Devices,) which calculated IC50 values. Melarsoprol was used as standard.

[3] = tested on: Trypanosoma brucei rhodesiense (STIB900); assay: as above; type: cell-based; conditions: L-6 cells versus T. b. rhodesiense
cruzipain = tested on: cruzipain; set-up: method as in doi:10.1590/S0103-50532010000100021; conditions: cited from earlier work
[4] = tested on: L. major cathepsin L-like cysteine protease; set-up: method as in PMID 9371086; conditions: cited from earlier work
[5] = L6, L-6 rat skeletal myoblasts, 72 h, means of two determinations
[6] = bloodstream forms, STIB900, 72 h, means of two determinations
[7] = L-6 rat skeletal myoblasts, 72 h, means of two determinations

Molecule	SI (Selectivity Index for leishmanicidal activity) [1]	IC50 [1] [µM]	IC50 (L-6 rat myoblast cells; [5]) [µM]	IC50 [2, 6] [µM]	SI (Selectivity Index for trypanocyde activity) [3]	Cytot. L-6 Cells IC50 (L-6 rat myoblast cells; [7])	IC50 ([2]; 72 h) [µM]	IC50 (L-6 rat myoblast cells; Rattus norvegicus, L6, 72 h) [µM]	IC50 (cruzipain) [µM]	IC50 [4] [µM]
COc1cc(/C=N/NC(=O)/C=C/c2ccccc2)ccc1O [Compound 4]	4.4	21.7	95.4	40.8	2.3					
O=C(/C=C/c1ccccc1)NN=Cc1ccc(O)c(O)c1 [Compound 5, (E)-N'-(3,4-dihydroxybenzylidene)cinnamohydrazide]	1.2	11.7	14	1.93	7.3	cytotoxic				
O=C(/C=C/c1ccccc1)N/N=C/c1ccc2c(c1)OCO2 [Compound 6]	0.3	12.5	4.3	89.5	0.05					
COc1cc(/C=N/NC(=O)/C=C/c2ccccc2)cc(OC)c1OC [Compound 7]	34.3	3.5	120	49.3	2.4					
O=C(/C=C/c1ccccc1)N/N=C/c1ccc(F)cc1 [Compound 8]	>13.8	24.3	> 335	284	>1.2					
O=C(/C=C/c1ccccc1)N/N=C/c1ccc([N+](=O)[O-])cc1 [Compound 9]	24.1	10.6	255	> 300						
COc1ccc(/C=N/NC(=O)/C=C/c2ccccc2)cc1 [Compound 10]		13.8	> 321	111						
O=C(/C=C/c1ccccc1)N/N=C/c1ccc(Cl)cc1 [Compound 11, (2E)-N'-[(E)-4-Chlorobenzylidene]-3-phenylprop-2-enohydrazide]	6.0	10.8	65.5	121	0.5					
O=C(/C=C/c1ccccc1)N/N=C/c1ccccc1 [Compound 12, (2E)-N'-[(E)-Benzylidene]-3-phenylprop-2-enohydrazide]	3.6	43.1	157	> 300						
O=C(/C=C/c1ccccc1)N/N=C/c1ccc(O)cc1 [Compound 13]	1.1	36.7	40.4	82.5	0.5					
COc1ccc(/C=N/NC(=O)/C=C/c2ccccc2)cc1OC [Compound 14]	>9.3	31.2	> 290	67.6	>4.3					
O=C(/C=C/c1ccccc1)N/N=C/c1ccccc1O [Compound 15, (2E)-N'-[(E)-2-Hydroxybenzylidene]-3-phenylprop-2-enohydrazide]	4.1	3.61	14.9	6.72	2.2	cytotoxic				
COc1ccc(/C=N/NC(=O)/C=C/c2ccccc2)cc1O [Compound 16]	1.4	33.3	48.1	80.1	0.6					
Nc1nc(N)nc(Nc2ccc([As]3SCC(CO)S3)cc2)n1 (centres unmarked) [MLSP, Melarsoprol, reference compound]							0.003			
CCCCCCCCCCCCCCCCOP(=O)([O-])OCC[N+](C)(C)C [MTS, Miltefosine, reference compound]		0.348								
COc1cc([C@@H]2c3cc4c(cc3[C@H](O)[C@H]3COC(=O)[C@H]23)OCO4)cc(OC)c1OC [PPT, Podophyllotoxin, reference compound]								0.006		
(E)-1-(benzo[d][1,3]dioxol-5-yl)-3-(4-bromophenyl)prop-2-en-1-one [Compound 1]									20	
(E)-3-hydroxy-N'-((2-hydroxynaphthalen-1-yl)methylene)-7-methoxy-2-naphthohydrazide [Compound 2]										0.5

— article PMC6271834, “Antiprotozoal Activity of (E)-Cinnamic N-Acylhydrazone Derivatives” (Molecules, 2014)
